Where “and” joins values, the source holds several entries; their conditions need not be identical. Equal entries are not always repeated.
Tests used:
U87MG cells = assay: Cellular uptake test in U87MG cells; type: cell-based, human; conditions: for cellular uptake to U87MG cells after activation by MMP-2: radio medium mixed with activated MMP-2, compared with no activation; for cellular uptake percentage (ID%), peak / maximum, U87MG cells: without MMP-2 activation, serum-free DMEM, 500 μL/well, 2-120 min, PBS rinsed 3 times, γ counting, 4 wells per time point
Experimental: (§1) U87MG cells and Caov3 cells were counted and uniformly inoculated into 24-well plates. The 24-well plates were marked, and cells were incubated for 24 hours in complete DMEM with 10% fetal bovine serum. Radio medium was prepared by adding 888 KBq (24 μCi) fluorine-18-labeled peptide into 15 mL DMEM without any serum. After incubation, the complete DMEM were poured and the radio medium were added in with 500 μL/well. The remainder medium were collected into 4 γ countertubes with 500 μL/tube to be representative of radioactivity gross. When the time arrived at 2, 5, 15, 30, 60, and 120 min, the radio medium were carefully pipetted out and the wells were carefully rinsed by 1 mL of PBS for 3 times. 4 wells were divided into a group corresponding to one time point. After the rinsing, SDS-NaOH solutions were added into the wells to dissociate the cells. The solutions were collected into γ countertubes to measure the radioactivity. The binding affinity was reflected by the radioactivity percentage, which was recorded as ID%, of the wells and the gross. The final results were recorded as the time-radioactivity curve including the six time points.
(§2) Fluorine-18 labeled peptides binding affinities after activation were also measured by this protocol while the radio-medium were mixed with activated MMP-2 (Abcam).

fibrin clots = target: T1, fibrin clots (Homo sapiens, UniProt P02671+P02675+P02679); assay: Fluorine-18-labeled peptide binding affinity to fibrin clots; conditions: clots from 75 μL fibrinogen 2 mg/mL + 30 μL thrombin 2.5 U/mL; 100 μL tracer in PBS, 37°C, one hour, PBS washed three times, radioactive counter, four tubes, mean ± SD
T1 sequence (P02671 36-629 limits assumed): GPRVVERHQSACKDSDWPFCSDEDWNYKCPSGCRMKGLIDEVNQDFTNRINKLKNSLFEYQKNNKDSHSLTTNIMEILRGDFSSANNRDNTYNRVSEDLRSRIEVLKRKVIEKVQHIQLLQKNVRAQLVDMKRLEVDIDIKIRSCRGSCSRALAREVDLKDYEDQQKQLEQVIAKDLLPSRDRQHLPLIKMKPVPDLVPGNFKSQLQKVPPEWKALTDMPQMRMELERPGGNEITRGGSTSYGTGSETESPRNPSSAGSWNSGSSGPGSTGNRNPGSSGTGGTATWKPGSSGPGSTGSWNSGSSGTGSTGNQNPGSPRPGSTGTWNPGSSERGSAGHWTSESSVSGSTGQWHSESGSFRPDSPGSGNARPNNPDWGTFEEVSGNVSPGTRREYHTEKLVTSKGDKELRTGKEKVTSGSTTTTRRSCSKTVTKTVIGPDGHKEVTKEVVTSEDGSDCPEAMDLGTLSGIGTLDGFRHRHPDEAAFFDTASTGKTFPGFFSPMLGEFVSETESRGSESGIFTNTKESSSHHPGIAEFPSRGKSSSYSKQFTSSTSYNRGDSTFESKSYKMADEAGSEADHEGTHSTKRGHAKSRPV
T1 sequence (P02675 45-491 limits assumed): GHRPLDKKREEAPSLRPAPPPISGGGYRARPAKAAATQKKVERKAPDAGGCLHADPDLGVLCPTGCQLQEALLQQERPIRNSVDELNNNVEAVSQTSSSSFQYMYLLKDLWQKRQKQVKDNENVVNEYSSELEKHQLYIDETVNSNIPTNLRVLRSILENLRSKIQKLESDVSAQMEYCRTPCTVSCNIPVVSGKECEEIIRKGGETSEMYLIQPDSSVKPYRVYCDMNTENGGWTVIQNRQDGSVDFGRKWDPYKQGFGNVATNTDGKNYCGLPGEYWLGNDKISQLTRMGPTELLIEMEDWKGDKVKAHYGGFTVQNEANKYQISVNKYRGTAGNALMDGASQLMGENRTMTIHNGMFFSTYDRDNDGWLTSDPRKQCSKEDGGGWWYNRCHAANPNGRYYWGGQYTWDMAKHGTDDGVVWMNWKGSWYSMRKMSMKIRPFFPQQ
T1 sequence (P02679 27-437 isoform P02679-2 limits assumed): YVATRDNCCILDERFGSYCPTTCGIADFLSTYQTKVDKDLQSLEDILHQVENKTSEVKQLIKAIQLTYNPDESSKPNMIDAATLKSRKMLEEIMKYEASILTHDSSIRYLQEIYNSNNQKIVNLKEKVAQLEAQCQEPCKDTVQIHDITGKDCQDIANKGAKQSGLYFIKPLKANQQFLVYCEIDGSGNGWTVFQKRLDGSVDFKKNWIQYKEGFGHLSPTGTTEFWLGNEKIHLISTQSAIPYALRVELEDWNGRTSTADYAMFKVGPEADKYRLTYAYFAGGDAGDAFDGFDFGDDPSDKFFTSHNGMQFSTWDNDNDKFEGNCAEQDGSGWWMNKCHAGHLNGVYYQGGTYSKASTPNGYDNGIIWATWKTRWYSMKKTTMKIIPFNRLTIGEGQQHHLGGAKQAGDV
Experimental: As previously reported, to synthesize fibrin clots, 75 μL of fibrinogen solution (2 mg/mL) in 0.9% NaCl was added to four 1.5 mL EP tubes. 30 μL of a 2.5 U/mL thrombin solution in 0.9% NaCl was subsequently added to these tubes. The tubes were placed in the thermostatic oscillator at 37°C for four hours, and the gels representative of fibrin clots were formed in the tubes. 370 KBq (10 μCi) fluorine-18-labeled peptide was diluted in 1 ml PBS. 100 μL of the solution was added into each tube, respectively, and added into four empty tubes for reference. All tubes were incubated at 37°C for one hour. After that, the supernatant liquid was carefully pipetted. PBS was added and pipetted three times to remove any CREKA or peptides not bond to the fibrin clots. Finally, all tubes were measured by a CAPRAC®-R radioactive counter (Imaxeon) to obtain the bond-to-gross ratio.

U87MG xenograft = conditions: mouse, in vivo
Experimental: Animal procedures were performed according to the guideline of the Animal Ethics Committee of the Southern Medical University. Approximately 10 × 10^6 U87MG cells and Caov3 cells were suspended in PBS and subcutaneously implanted in the right armpit of female BALB/c nude mice. Tumors were allowed to grow to a size of 0.5–1.5 cm in diameter.
Small-animal PET/CTs were performed at the PET center of Southern Medical University Nanfang Hospital using a PET/CT scanner (Simens Inveon Micro-PET/CT). Tumor-bearing mice (n = 3/group) were intravenously injected with 5.55 MBq of ^18F-NOTA-LP or ^18F-NOTA-iCREKA under isoflurane anesthesia. A ten-minute static PET scan for each animal was acquired at 30, 60, and 120 min after the injection. 120 min dynamic scans were also obtained for ^18F-NOTA-LP and ^18F-NOTA-iCREKA (n = 2/group). The 3-dimensional ordered subset expectation maximization (3D-OSEM) algorithm was used for the PET reconstruction, and CT was applied for attenuation correction. Inveon Research Workplace (IRW) 3.0 software (Siemens, Germany) was used to measure the regions of interest (ROIs). The radioactivity concentrations were computed automatically, and the results were reflected by the unit of percent injected dose per gram (%ID/g). The maximum %ID/g of the ROIs was used for statistical analyses. Tumor-to-muscle (T/M) uptake ratios were calculated by dividing the radioactivity uptake in the tumor by the contralateral shoulder muscle.

Caov3 cells = assay: Cellular uptake test in Caov3 cells; type: cell-based, human; conditions: radio medium mixed with activated MMP-2; compared with no activation
Experimental: as §1, §2

[1] = type: physicochemical
Experimental: The water partition coefficient was reflected by the logP value of the fluorine-18-labeled peptides. 500 μL of octanol and 500 μL of pure water were added into an EP tube. 185 KBq (5 μCi) of fluorine-18-labeled peptides were added into the solution and well mixed. After centrifugating for 5 min at a speed of 1000 r/min, 300 μL of supernatant liquid and 300 μL of lower liquid were carefully pipetted into two γ countertubes, respectively. The logarithm of the radioactivity ratio of octanol to water was the logP value. The test was repeated four times for each fluorine-18-labeled peptide.

[2] = mouse, in vivo
Experimental: A nude with U87MG xenograft was injected with a dose of approximately 11.1 MBq (0.3 mCi) of ^18F-labeled peptides via the tail vein. The mouse was euthanized at 30 min after injection, the tumor was carefully excised, and the blood was collected. The tumor was cut into pieces and made into homogenates by mixing 200 μL normal saline. The mixture was centrifuged for 10 min at a speed of 12000 r/min. The supernatant liquid was carefully pipetted and transferred into an Amicon® Ultracentrifugal filter device for further centrifugation. The filtrate was injected into an HPLC column to analyze the in vivo stability of fluorine-18-labeled peptide.

| fibrin-binding percentage (bond-to-gross ratio) (fibrin clots) | maximum T/M ratio on dynamic micro-PET (U87MG xenograft) | tumor-to-muscle (T/M) ratio on micro-PET (U87MG xenograft) | logP value [1] | kidney uptake (U87MG xenograft) | liver uptake (U87MG xenograft) | area under the time-radioactivity curve representative of defluorination, blood [2] | area under the time-radioactivity curve representative of defluorination, tumor [2] | Substance | cellular uptake to U87MG cells after activation by MMP-2 (U87MG cells) | cellular uptake percentage (ID%), peak / maximum, U87MG cells (U87MG cells) | cellular uptake to Caov3 cells after activation by MMP-2 (Caov3 cells) |
| --- | --- | --- | --- | --- | --- | --- | --- | --- | --- | --- | --- |
| 67.09 ± 6.20% | 2.69 ± 0.35 | 2.08 ± 0.50 | −2.57 ± 0.02 | – | – | – | – | CREKAPLGLAGRKKRRQRRRCK (NOTA) [^18F-NOTA-LP, Al^18F-labeled NOTA conjunct of the contrasted linear peptide LP] | increased | 16.05% and 23.90% | slightly higher |
| 67.92 ± 6.71% | – | 6.48 ± 0.50 | −2.51 ± 0.01 | about 27 %ID/g | about 4 %ID/g | 27.78% | 23.28% | CREKAPLGLAGRKKRRQRRRCK (NOTA) (Cys&Cys bridge) (disulfide) [^18F-NOTA-iCREKA] | increased | 23.90% and 16.05% | obviously increased |
| 69.31% ± 6.82 | – | – | −2.47 ± 0.05 | – | – | – | – | NOTA-CREKA [^18F-NOTA-CREKA, Al^18F-labeled NOTA conjunct of the pentapeptide CREKA] | still no radioactivity | – | nearly no radioactivity |
